Test results as given in PMC2729173 (Cancer research, 2009).
Where a name gives a salt, the structure may show the parent alone. Read-outs that look alike come from different tables or passages of the source.

Tests used:
[1] = rat; cited from earlier work
[2] = molecular target: T1, BCRP (Homo sapiens, UniProt Q9UNQ0); format: cell-based; conditions: for intracellular topotecan lactone concentration: topotecan 500 ng/mL
T1 sequence (Q9UNQ0 1-655): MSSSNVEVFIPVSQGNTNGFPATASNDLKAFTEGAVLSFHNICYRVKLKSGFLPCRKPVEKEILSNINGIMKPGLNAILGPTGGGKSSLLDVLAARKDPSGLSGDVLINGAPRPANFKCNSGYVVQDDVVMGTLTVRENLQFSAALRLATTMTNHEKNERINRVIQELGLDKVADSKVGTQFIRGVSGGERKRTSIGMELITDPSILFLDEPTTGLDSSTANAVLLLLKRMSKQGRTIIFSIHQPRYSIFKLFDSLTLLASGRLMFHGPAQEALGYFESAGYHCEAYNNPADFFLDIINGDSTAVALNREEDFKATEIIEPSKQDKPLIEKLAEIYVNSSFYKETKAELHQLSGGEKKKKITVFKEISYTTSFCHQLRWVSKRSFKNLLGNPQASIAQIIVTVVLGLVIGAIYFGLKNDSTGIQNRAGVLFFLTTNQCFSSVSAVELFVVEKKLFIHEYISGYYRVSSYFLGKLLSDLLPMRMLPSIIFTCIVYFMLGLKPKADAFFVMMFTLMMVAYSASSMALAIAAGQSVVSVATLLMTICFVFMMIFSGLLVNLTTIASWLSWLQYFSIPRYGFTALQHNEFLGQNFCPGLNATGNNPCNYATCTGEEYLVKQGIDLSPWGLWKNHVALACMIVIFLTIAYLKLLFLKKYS

[3] = Intracerebral microdialysis of brain parenchymal ECF; conditions: topotecan 4 mg/kg i.v.; for ECF CLin-to-CLout ratio of unbound topotecan lactone: three-compartment model; for Kp: mouse, brain ECF (striatum microdialysate) vs plasma, intravenous, 4 mg/kg, ECF-to-plasma AUC ratio of unbound topotecan lactone (AUCu,ECF/AUCu,plasma), mean ±SD; for topotecan lactone ECF concentrations: Mdr1a/b−/− mice
[4] = Topotecan lactone plasma protein binding; format: in vitro ADME, mice; conditions: mouse, unbound fraction of plasma topotecan lactone, mean ±SD
[5] = Intracerebral microdialysis of ventricular CSF; conditions: topotecan 4 mg/kg i.v., three-compartment model

For `CCCNCCOc1ccc(NC(=O)c2c[nH]c3c2C(=O)CCC3)cc1F` [CP-615,003], the “accumulation in CSF relative to ECF” value [1] is listed as 7 fold.

For `CCC(O)(C(=O)O)c1cc2n(c(=O)c1CO)Cc1cc3c(CN(C)C)c(O)ccc3nc1-2` (centres unmarked) [Topotecan carboxylate], the “topotecan carboxylate detection in cells” value ([2]; pH 6) was “not detected” and the “difference in intracellular topotecan carboxylate accumulation between Saos2-pcDNA and Saos2-BCRP cells” value ([2]; pH 8, data not shown) was “no difference”.

For `CC[C@@]1(O)C(=O)OCc2c1cc1n(c2=O)Cc2cc3c(CN(C)C)c(O)ccc3nc2-1` [Topotecan, Topotecan hydrochloride], the “intracellular topotecan lactone concentration” value ([2]; Saos2-BCRP cells, 1-min incubation, pH 6) was 0.043±0.005 ng/μg protein, the “intracellular topotecan lactone concentration” value ([2]; Saos2-BCRP cells, 30-min incubation, pH 6) was 0.026 ± 0.004 ng/µg and the “intracellular topotecan lactone concentration” value ([2]; Saos2-pcDNA control cells, 1-min incubation, pH 6) was 0.063±0.01 ng/μg protein. The “intracellular topotecan lactone concentration” value ([2]; Saos2-pcDNA control cells, 30-min incubation, pH 6) was 0.039 ± 0.003 ng/µg, the “ECF CLin-to-CLout ratio of unbound topotecan lactone” value ([3]; Bcrp1−/− mice) was 0.42 ± 0.06 and the Kp ([3]; Bcrp1−/−, Bcrp1−/− mice) was 0.42 ± 0.06. For the same compound, the “ECF CLin-to-CLout ratio of unbound topotecan lactone” value ([3]; FVB wild-type mice) was 0.36 ± 0.06, the Kp ([3]; FVB, Mdr1a/b−/−Bcrp1−/− mice) was 0.89 ± 0.07 and the “topotecan lactone ECF concentrations” value ([3]; listed as Topotecan lactone) was “below detectable limits”. The “topotecan lactone ECF concentrations” value ([3]; listed as topotecan lactone) was “below the lower limit of detection”, the “ECF CLin-to-CLout ratio of unbound topotecan lactone” value ([3]; Mdr1a/b−/−Bcrp1−/− mice) was 0.89 ± 0.07 and the Kp ([3]; Mdr1a/b−/−Bcrp1−/−, Mdr1a/b−/−Bcrp1−/− mice) was 0.88 ± 0.07. The fraction unbound ([4]; FVB, wild-type mice) was 0.301, the fraction unbound ([4]; Bcrp1−/− mice) was 0.309 and the fraction unbound ([4]; Mdr1a/b−/− mice) was 0.292. The fraction unbound ([4]; Mdr1a/b−/−Bcrp1−/− mice) was 0.275, the “vCSF CLin-to-CLout ratio of unbound topotecan lactone” value ([5]; Bcrp1−/− mice) was 1.59 ± 0.16 and the “vCSF CLin-to-CLout ratio of unbound topotecan lactone” value ([5]; FVB wild-type mice) was 3.01 ± 0.15. The “vCSF CLin-to-CLout ratio of unbound topotecan lactone” value ([5]; Mdr1a/b−/− mice) was 2.57 ± 0.17 and the “vCSF CLin-to-CLout ratio of unbound topotecan lactone” value ([5]; Mdr1a/b−/−Bcrp1−/− mice) was 0.86 ± 0.04.
